pIC50: −log10 of the molar value.
Target: T1, human α1β2γ2L GABAA receptor (Homo sapiens, UniProt P14867+P18507+P47870)
T1 construct: gene GABRA1; α1β2γ2L receptor expressed in Xenopus laevis oocytes; with GABRB2 (β2) and GABRG2 (γ2L) subunits
Assay: two-electrode voltage clamp in Xenopus oocytes, inhibition of GABA-evoked current ([…] GABA)
Assay type: cell-based

T1 sequence (P14867 28-456): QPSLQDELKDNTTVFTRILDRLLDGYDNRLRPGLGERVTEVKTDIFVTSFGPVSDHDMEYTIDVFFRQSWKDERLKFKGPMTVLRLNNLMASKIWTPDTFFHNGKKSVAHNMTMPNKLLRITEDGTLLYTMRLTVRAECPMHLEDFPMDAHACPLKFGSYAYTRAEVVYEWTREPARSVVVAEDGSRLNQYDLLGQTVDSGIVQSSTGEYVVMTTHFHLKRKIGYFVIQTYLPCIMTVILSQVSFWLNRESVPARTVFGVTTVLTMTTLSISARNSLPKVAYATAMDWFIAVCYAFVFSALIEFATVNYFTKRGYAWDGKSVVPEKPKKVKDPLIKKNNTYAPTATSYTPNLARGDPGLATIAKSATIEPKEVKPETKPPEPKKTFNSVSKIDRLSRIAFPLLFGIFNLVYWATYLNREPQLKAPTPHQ
T1 sequence (P47870 26-512): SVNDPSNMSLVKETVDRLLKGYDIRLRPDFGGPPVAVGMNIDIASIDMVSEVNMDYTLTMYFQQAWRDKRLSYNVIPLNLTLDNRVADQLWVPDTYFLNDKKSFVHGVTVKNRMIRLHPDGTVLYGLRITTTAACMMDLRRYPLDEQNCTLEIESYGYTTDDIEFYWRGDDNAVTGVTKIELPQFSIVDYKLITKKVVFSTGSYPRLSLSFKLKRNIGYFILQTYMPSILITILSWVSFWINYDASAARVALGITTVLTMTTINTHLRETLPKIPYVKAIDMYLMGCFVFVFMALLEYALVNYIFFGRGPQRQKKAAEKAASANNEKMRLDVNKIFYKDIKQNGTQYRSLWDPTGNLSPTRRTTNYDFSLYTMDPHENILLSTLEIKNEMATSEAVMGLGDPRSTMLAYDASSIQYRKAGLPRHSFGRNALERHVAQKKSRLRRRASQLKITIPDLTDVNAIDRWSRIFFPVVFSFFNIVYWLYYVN
T1 sequence (P18507 40-475): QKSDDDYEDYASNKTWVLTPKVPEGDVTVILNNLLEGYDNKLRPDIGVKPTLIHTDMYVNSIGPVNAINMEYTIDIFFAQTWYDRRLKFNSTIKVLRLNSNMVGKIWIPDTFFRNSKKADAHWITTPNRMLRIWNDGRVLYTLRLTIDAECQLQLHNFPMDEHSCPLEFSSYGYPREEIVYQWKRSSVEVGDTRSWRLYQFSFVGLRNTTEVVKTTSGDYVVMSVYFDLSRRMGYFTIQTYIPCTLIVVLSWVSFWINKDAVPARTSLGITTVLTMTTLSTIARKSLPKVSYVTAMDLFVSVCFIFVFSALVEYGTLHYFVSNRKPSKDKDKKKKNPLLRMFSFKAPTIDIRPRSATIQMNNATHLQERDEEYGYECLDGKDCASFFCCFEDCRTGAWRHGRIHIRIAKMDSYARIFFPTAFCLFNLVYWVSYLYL

Row | Compound | pIC50
1 | O=C(O)C(F)(F)C(F)(F)C(F)(F)C(F)(F)C(F)(F)C(F)(F)C(F)(F)F [PFOA] | 5.17
2 | O=S(=O)(O)C(F)(F)C(F)(F)C(F)(F)C(F)(F)C(F)(F)C(F)(F)C(F)(F)C(F)(F)F [PFOS] | 6.74

From article PMC7093421, “Perfluorooctane sulfonate (PFOS) and perfluorooctanoate (PFOA) acutely affect human α1β2γ2L GABAA receptor and spontaneous neuronal network function in vitro” (Scientific Reports, 2020)
